Legend:
BTK = BTK (Homo sapiens (Human), UniProt Q06187); assay: Kinase inhibition assay (Nanosyn, microfluidic detection), BTK; type: biochemical; conditions: 1 mM ATP, 3 hours at 25° C.
Protocol: (§1) The in vitro kinase assays were performed at Nanosyn (Santa Clara, Calif.) utilizing microfluidic detection technology. The test compounds were serially pre-diluted in DMSO and added, by the acoustic dispensing (Labcyte® 550), directly to 384 well assay plates into 10 uL of a buffer with enzyme (ITK, TXK, BTK or TEC) comprising: 100 mM HEPES, pH7.5, 5 mM MgCl2, 0.1% bovine serum albumin, 1 mM DTT, 0.01% Triton X-100 and the enzyme. Final DMSO concentration was maintained at 1% in all samples, including the controls. The reactions were initiated by addition of ATP (1 mM final concentration) and the fluorescently labeled peptide substrate to a final concentration of 1 uM, and incubated for 3 hours at 25° C. Following incubation, the reactions were quenched by addition of 40 μL of termination buffer (100 mM HEPES, pH7.5, 0.01% Triton X-100, 50 mM EDTA). Terminated plates were analyzed using Caliper LabChip® 3000 microfluidic electrophoresis instrument (Caliper Life Sciences/Perkin Elmer). The enzymatic modification of the peptide substrate (phosphorylation) results in a change of net charge enabling electrophoretic separation of product from substrate. As substrate and product are separated by electrophoresis, two peaks of fluorescence are observed. Change in the relative fluorescence intensity of the substrate and product peaks was the parameter measured, reflecting enzyme activity. In the presence of inhibitor, the ratio between product and substrate is altered: signal of the product decreases, while the signal of the substrate increases. Activity in each test sample was determined as the product to sum ratio (PSR): P/(S+P), where P is the peak height of the product and S is the peak height of the […]. For each compound, enzyme activity was measured at 12 concentrations spaced by 3× dilution intervals. Negative control samples (0%-inhibition in the absence of inhibitor, DMSO only) and positive control samples (100%-inhibition, in the absence of enzyme or in the presence of control inhibitor) were assembled in replicates of four and were used to calculate %-inhibition values in the presence of compounds. Percent inhibition (Pinh) was determined using the following equation: Pinh=(PSR0%−PSRinh)/(PSR0%−PSR100%)*100, where PSRinh is the product sum ratio in the presence of inhibitor, PSR0% is the product sum ratio in the absence of inhibitor and PSR100% is the product sum ratio in 100%-inhibition control samples. To determine IC50 values, the inhibition curves (Pinh versus inhibitor concentration) were fitted by 4 parameter sigmoid dose-response model using XLfit software (IDBS).

TXK = TXK (Homo sapiens (Human), UniProt P42681); assay: Kinase inhibition assay (Nanosyn, microfluidic detection), TXK; type: biochemical; conditions: 1 mM ATP, 3 hours at 25° C.
Protocol: as §1, with “The enzymatic modification of the peptide substrate (phosphorylation) results in a change of net charge enabling electrophoretic separation of product from substrate.” left out

Chain of BTK (Q06187 whole entry): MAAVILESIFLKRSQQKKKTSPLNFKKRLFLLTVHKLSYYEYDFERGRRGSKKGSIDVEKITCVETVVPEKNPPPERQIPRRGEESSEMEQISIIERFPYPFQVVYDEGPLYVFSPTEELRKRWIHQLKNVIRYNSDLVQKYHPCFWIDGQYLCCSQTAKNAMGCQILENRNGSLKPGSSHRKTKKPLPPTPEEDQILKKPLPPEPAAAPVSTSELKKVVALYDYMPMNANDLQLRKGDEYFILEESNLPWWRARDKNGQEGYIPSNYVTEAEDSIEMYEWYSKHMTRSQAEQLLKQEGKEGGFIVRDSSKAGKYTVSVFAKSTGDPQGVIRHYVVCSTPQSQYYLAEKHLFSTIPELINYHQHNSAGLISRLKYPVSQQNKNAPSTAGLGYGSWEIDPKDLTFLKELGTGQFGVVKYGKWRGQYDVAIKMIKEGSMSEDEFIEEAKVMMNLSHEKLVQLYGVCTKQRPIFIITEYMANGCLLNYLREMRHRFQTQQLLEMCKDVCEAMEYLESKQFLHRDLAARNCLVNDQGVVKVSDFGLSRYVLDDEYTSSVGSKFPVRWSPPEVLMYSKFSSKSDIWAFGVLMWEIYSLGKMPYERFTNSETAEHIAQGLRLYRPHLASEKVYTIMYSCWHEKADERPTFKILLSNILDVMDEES
Chain of TXK (P42681 whole entry): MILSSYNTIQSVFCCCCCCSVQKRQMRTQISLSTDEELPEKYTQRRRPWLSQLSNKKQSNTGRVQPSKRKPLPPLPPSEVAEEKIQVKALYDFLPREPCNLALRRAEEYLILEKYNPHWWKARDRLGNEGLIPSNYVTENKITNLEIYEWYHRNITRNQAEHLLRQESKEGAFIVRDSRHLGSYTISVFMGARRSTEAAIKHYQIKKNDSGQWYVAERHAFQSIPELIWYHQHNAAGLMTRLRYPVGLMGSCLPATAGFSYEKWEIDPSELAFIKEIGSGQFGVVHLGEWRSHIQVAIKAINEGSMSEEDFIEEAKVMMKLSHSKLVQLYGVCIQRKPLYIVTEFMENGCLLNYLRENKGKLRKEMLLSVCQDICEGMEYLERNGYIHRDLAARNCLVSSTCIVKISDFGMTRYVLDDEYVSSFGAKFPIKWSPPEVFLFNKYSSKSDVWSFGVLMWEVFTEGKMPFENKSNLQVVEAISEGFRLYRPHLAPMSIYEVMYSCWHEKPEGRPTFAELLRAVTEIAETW

Compound | IC50 (BTK) [nM] | IC50 (TXK) [nM]
C=CC(=O)N1CC[C@]2(C1)C[C@H](n1c(NC(=O)c3ccc(-c4ccn(C)c(=O)c4)s3)nc3ccccc31)C2 [Compound 109] | 43.5 | 14
C=CC(=O)N1CC[C@]2(C1)C[C@H](n1c(NC(=O)c3ccc(-c4nnc(C)o4)s3)nc3ccccc31)C2 [Compound 94] | 1.38 | 0.82
C=CC(=O)N1CC[C@]2(C1)C[C@H](n1c(NC(=O)c3ccc(-c4ccc(F)nc4)s3)nc3ccccc31)C2 [Compound 126] | 9.21 | 0.8
C=CC(=O)N1CC[C@]2(C1)C[C@H](n1c(NC(=O)c3cnc(C(C)C)s3)nc3cc(CN[C@@H](C)C(C)(C)C)ccc31)C2 [Compound 7] | 2.2 | 0.6
C=CC(=O)N1CC[C@]2(C1)C[C@H](n1c(NC(=O)c3ccc(-c4cnco4)s3)nc3cc(CN[C@H]4CC[C@H](O)CC4)ccc31)C2 [Compound 42] | 0.53 | –
C=CC(=O)N1CC[C@]2(C1)C[C@@H](n1c(NC(=O)c3ccc(-c4cnco4)s3)nc3ccc(Cl)cc31)C2 [Compound 69] | – | 7.71
C=CC(=O)N1CC[C@]2(C1)C[C@H](n1c(NC(=O)c3cncs3)nc3cc(CN[C@@H](C)C(C)(C)C)ccc31)C2 [Compound 13] | 1.8 | –
C=CC(=O)N1CC[C@]2(C1)C[C@@H](n1c(NC(=O)c3ccc(C(F)F)s3)nc3cc(CN[C@@H](C)C(C)(C)C)ccc31)C2 [Compound 3] | 26.8 | –
C=CC(=O)N1CC[C@]2(C1)C[C@H](n1c(NC(=O)c3ccc(-c4cncc(N)c4)s3)nc3ccccc31)C2 [Compound 128] | 0.63 | –
C=CC(=O)N1CC[C@]2(C1)C[C@H](n1c(NC(=O)c3ccc(-c4cncnc4)s3)nc3cc(CO)ccc31)C2 [Compound 148] | – | 0.69
C=CC(=O)N1CC[C@]2(C1)C[C@H](n1c(NC(=O)c3ccc(-c4cnco4)s3)nc3cc(F)ccc31)C2 [Compound 57] | 1.09 | –
C=CC(=O)N1CC[C@]2(C1)C[C@H](n1c(NC(=O)c3ccc(C(=O)OC)s3)nc3ccccc31)C2 [Compound 98] | – | 0.31
C=CC(=O)N1CC[C@]2(C1)C[C@H](n1c(NC(=O)c3ccc(C#N)cc3)nc3cc(CN[C@@H](C)C(C)(C)C)ccc31)C2 [Compound 19] | 1.34 | –
C=CC(=O)N1CC[C@]2(C1)C[C@H](n1c(NC(=O)c3ccns3)nc3cc(CN[C@@H](C)C(C)(C)C)ccc31)C2 [Compound 25] | 0.7 | –
C=CC(=O)N1CC[C@]2(C1)C[C@H](n1c(NC(=O)c3ccc(-c4ccnc(C)n4)s3)nc3ccccc31)C2 [Compound 149] | 0.68 | –
C=CC(=O)N1CC[C@]2(C1)C[C@H](n1c(NC(=O)c3ccc(-c4ccnc(NC)c4)s3)nc3ccccc31)C2 [Compound 131] | 0.46 | –
C=CC(=O)N1CC[C@]2(C1)C[C@H](n1c(NC(=O)c3ccc(-c4ccnc(N)n4)s3)nc3ccccc31)C2 [Compound 138] | 0.41 | –
C=CC(=O)N1CC[C@]2(C1)C[C@H](n1c(NC(=O)c3ccc(NC(=O)c4cccnc4)s3)nc3ccccc31)C2 [Compound 111] | – | 64.1
C=CC(=O)N1CC[C@]2(C1)C[C@H](n1c(NC(=O)c3ccc(C(C)(F)F)s3)nc3ccccc31)C2 [Compound 30] | 2.11 | –
C=CC(=O)N1CC[C@]2(C1)C[C@H](n1c(NC(=O)c3ccc(-c4cnco4)s3)nc3cc(CN[C@@H](C)C(C)(C)C)ccc31)C2 [Compound 4] | 0.64 | –
C=CC(=O)N1CC[C@]2(C1)C[C@H](n1c(NC(=O)c3ccc(-c4cc[nH]c(=O)c4)s3)nc3ccccc31)C2 [Compound 97] | 0.33 | –

Compound | IC50 (BTK) [nM] | IC50 (TXK) [nM]
C=CC(=O)N1CC[C@]2(C1)C[C@@H](n1c(NC(=O)c3ccc(-c4cnco4)s3)nc3cc(Cl)ccc31)C2 [Compound 71] | – | 17.9
C=CC(=O)N1CC[C@]2(C1)C[C@H](n1c(NC(=O)c3ccc(-c4cnco4)s3)nc3c(OC)cccc31)C2 [Compound 87] | – | 5.72
C=CC(=O)N1CCC[C@]2(C1)C[C@H](n1c(NC(=O)c3ccc(C(F)F)s3)nc3cc(CN[C@@H](C)C(C)(C)C)ccc31)C2 [Compound 9] | – | 0.2
C=CC(=O)N1CC[C@]2(C1)C[C@H](n1c(NC(=O)c3ccc(-c4cnco4)s3)nc3cc(CNCC(C)(C)CO)ccc31)C2 [Compound 44] | 0.66 | –
C=CC(=O)N1CC[C@]2(C1)C[C@H](n1c(NC(=O)c3ccc(-c4cnco4)s3)nc3ccc(CO)cc31)C2 [Compound 73] | – | 0.26
C=CC(=O)N1CC[C@]2(C1)C[C@H](n1c(NC(=O)c3ccc(C(F)F)s3)nc3cc(CN4CCOCC4)ccc31)C2 [Compound 27] | 2.59 | –
C=CC(=O)N1CC[C@]2(C1)C[C@@H](n1c(NC(=O)c3ccc(C(F)F)s3)nc3ccccc31)C2 [Compound 17] | – | 11
C=CC(=O)N1CC[C@]2(C1)C[C@H](n1c(NC(=O)c3ccc(C(=O)N4CCOCC4)s3)nc3ccccc31)C2 [Compound 91] | – | 17.6
C=CC(=O)N1CC[C@]2(C1)C[C@H](n1c(NC(=O)c3ccc(C(=O)Nc4cccnc4)s3)nc3ccccc31)C2 [Compound 85] | – | 3.15
C=CC(=O)N1CC[C@]2(C1)C[C@H](n1c(NC(=O)c3ccc(NC(=O)C4CCCC4)s3)nc3ccccc31)C2 [Compound 106] | – | 30.1
C=CC(=O)N1CC[C@]2(C1)C[C@H](n1c(NC(=O)c3ccc(-c4nc(C)no4)s3)nc3ccccc31)C2 [Compound 92] | – | 64.3
C=CC(=O)N1CC[C@]2(C1)C[C@H](n1c(NC(=O)c3ccc(C(F)F)s3)nc3cc(CN[C@@H](C)C(C)(C)C)ccc31)C2 [Compound 2] | 1.01 | –
C=CC(=O)N1CC[C@]2(C1)C[C@H](n1c(NC(=O)c3ccc(-c4noc(C)n4)s3)nc3ccccc31)C2 [Compound 93] | – | 9.88
C=CC(=O)N1CC[C@]2(C1)C[C@H](n1c(NC(=O)c3ccc(-c4ccc(C#N)cc4)s3)nc3ccccc31)C2 [Compound 118] | – | 7.31
C=CC(=O)N1CC[C@]2(C1)C[C@H](n1c(NC(=O)c3ccc(-c4cccc(C#N)c4)s3)nc3ccccc31)C2 [Compound 122] | – | 1.22
C=CC(=O)N1CC[C@]2(C1)C[C@H](n1c(NC(=O)c3ccc(N4CCCC4=O)s3)nc3ccccc31)C2 [Compound 121] | – | 5.48
C=CC(=O)N1CC[C@]2(C1)C[C@H](n1c(NC(=O)c3ccc(C(F)F)s3)nc3cc(CNCC(C)(C)CO)ccc31)C2 [Compound 37] | 0.95 | –
C=CC(=O)N1CC[C@]2(C1)C[C@@H](n1c(NC(=O)c3ccc(-c4cnco4)s3)nc3cc(F)ccc31)C2 [Compound 68] | 41.9 | –
C=CC(=O)N1CC[C@]2(C1)C[C@H](n1c(NC(=O)c3ccc(C(F)(F)CO)s3)nc3ccccc31)C2 [Compound 130] | 1.06 | –
C=CC(=O)N1CC[C@]2(C1)C[C@H](n1c(NC(=O)c3ccc(C(=O)N4CCCC4)s3)nc3ccccc31)C2 [Compound 102] | – | 5.63
C=CC(=O)N1CCC[C@]2(C1)C[C@@H](n1c(NC(=O)c3ccc(C(F)F)s3)nc3cc(CN[C@@H](C)C(C)(C)C)ccc31)C2 [Compound 10] | – | 0.84
